We go through 6 molecules from patent US11008345B2, “Boron-containing small molecules” (Anacor Pharmaceuticals, Inc., priority 2010, dated 2021).

Structures can show the parent of a compound that is named as a salt. Where two headings read alike, the source gives them in different places.

Test [1] has as its system M. tuberculosis strain Erdman. It is filed as in vivo. The note with it: day 24, C57BL/6 GKO mice.
Test [2] deals with M. tuberculosis strain Erdman. It is filed as in vivo. The note with it: C57BL/6 GKO mice; for log 10 CFU for lungs: day 22, lungs; for log 10 CFU for spleens: day 22, spleens.

With `CCOc1ccc(Cl)c2c1B(O)O[C@@H]2CN.Cl` (single isomer, unassigned) [L], the “log 10 CFU/lung” value in test [1] (100 mg/kg QD PO) was 3.08 (0.06) log 10 CFU/lung.

With `CO[C@H]1/C=C/O[C@@]2(C)Oc3c(C)c(O)c4c(O)c(c(/C=N/N5CCN(C)CC5)c(O)c4c3C2=O)NC(=O)/C(C)=C\C=C\[C@H](C)[C@H](O)[C@@H](C)[C@@H](O)[C@@H](C)[C@H](OC(C)=O)[C@@H]1C` [rifampicin, reference compound], in test [1] (10 mg/kg QD PO), the “log 10 CFU/lung” value was 6.16 (0.10) log 10 CFU/lung.

As to `CCOc1ccc(Br)c2c1B(O)OC2CN` (stereo not shown) [E, 3-(Aminomethyl)-4-bromo-7-ethoxybenzo[c][1,2]oxaborol-1(3H)-ol 2,2,2-trifluoroacetate Salt], in test [1] (100 mg/kg BID PO), the “log 10 CFU/lung” value is recorded as 2.73 (0.05) log 10 CFU/lung. Further, in test [2] (100 mg/kg QD PO), the “log 10 CFU for lungs” value was 5.27 (0.12) log 10 CFU and the “log 10 CFU for spleens” value was 4.27 (0.25) log 10 CFU.

Regarding `NNC(=O)c1ccncc1` [INH, Isoniazid, reference compound], in test [2] (25 mg/kg QD PO), the “log 10 CFU for lungs” value is 5.29 (0.13) log 10 CFU and the “log 10 CFU for spleens” value is given as 4.27 (0.25) log 10 CFU.

Consider `CCOc1ccc(F)c2c1B(O)OC2CN.Cl` (stereo not shown) [C, 3-Aminomethyl-7-ethoxy-4-fluoro-3H-benzo[c][1,2]-oxaborol-1-ol; Hydrochloride], for which, in test [1] (100 mg/kg BID PO), the “log 10 CFU/lung” value is 5.06 (0.26) log 10 CFU/lung.

Consider `CCOc1ccc(F)c2c1B(O)O[C@@H]2CN.Cl` (single isomer, unassigned) [N], for which, in test [2] (100 mg/kg BID PO), the “log 10 CFU for lungs” value is on record as 5.51 (0.09) log 10 CFU and the “log 10 CFU for spleens” value was 2.42 (0.48) log 10 CFU.
